Molecules are shown by their SMILES.

One test concerns MT4. The experiment in a line: Ability to inhibit the spread of viral infection in MT-4 human T-lymphoid cells infected with HIV IIIb. Type of test: functional.
Test [1] addresses Human immunodeficiency virus type 1 protease (Human immunodeficiency virus 1, UniProt Q72874). As to the kind of experiment: Ability to prevent cleavage of acompound by the HIV protease wild-type enzyme.

A word on the IC50: it is the concentration at which inhibition is half-maximal. In turn, `CC(C)(C)NC(=O)[C@H]1CN(S(=O)(=O)c2cccs2)CCN1C[C@H](O)C[C@@H](Cc1ccccc1)C(=O)NC1c2ccccc2C[C@H]1O` (stereo partly drawn) had a ClC95 in the test on MT4 of 31.3 nM. Also, the IC50 in test [1] is 0.1 nM.

In the case of `Cc1cc(O)cc(C)c1CNC(=O)[C@H](Cc1ccccc1)C[C@@H](O)CN1CCN(S(=O)(=O)c2ccc3c(c2)CCN3c2ncccn2)C[C@@H]1C(=O)NC(C)(C)C`, in the test with MT4, the ClC95 turned out to be 31.3 nM. In test [1], this compound yielded an IC50 of 0.2 nM.

In the test with MT4, `Cc1cc(O)cc(C)c1CNC(=O)[C@H](Cc1ccccc1)C[C@@H](O)CN1CCN(S(=O)(=O)c2cccs2)C[C@@H]1C(=O)NC(C)(C)C` displayed a ClC95 of 62.5 nM. In addition, in test [1], the IC50 is 0.47 nM.

Turning to `CSc1nccc(-c2ccc(S(=O)(=O)N3CCN(C[C@H](O)C[C@@H](Cc4ccccc4)C(=O)NCc4c(C)cc(O)cc4C)[C@@H](C(=O)NC(C)(C)C)C3)s2)n1`, the ClC95 in the test on MT4 is 62.5 nM. In test [1], this compound showed an IC50 below 0.2 nM.

The values are drawn from ChEMBL document CHEMBL1135201, “Combinatorial library of indinavir analogues: replacement for the aminoindanol at P2'” (Bioorg Med Chem Lett, 2002).
